# Test results published in patent US20230085307A1, “PYRIDAZINONE COMPOUND AND HERBICIDE” (NISSAN CHEMICAL CORPORATION, priority 2019, published 2023).
# What was measured:
# barnyard grass [1] = assay: Test Example 3: herbicidal effect by foliage application, Wagner pot (Table 18, symbol H); assay type: in vivo, barnyard grass (Echinochloa crus-galli); details: 320 g/ha
# Procedure, shortened: (§1)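 Plants were sown in alluvial soil held under 0.1–0.5 cm standing water and grown 14 days in a greenhouse at 25–30 °C. An emulsifiable formulation, water-diluted to the set dose, was then sprayed onto the foliage, and effects were scored three weeks later using previously defined criteria.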
# Chinese sprangletop = assay: Test Example 3: herbicidal effect by foliage application, Wagner pot (Table 18, symbol D); assay type: in vivo, chinese sprangletop (Leptochloa chinensis); details: 320 g/ha
# Procedure, shortened: as §1
# rice flat sedge = assay: Test Example 3: herbicidal effect by foliage application, Wagner pot (Table 18, symbol E); assay type: in vivo, rice flat sedge (Cyperus iria); details: 320 g/ha
# Procedure, shortened: as §1
# southern crabgrass [2] = assay: Test Example 4: herbicidal effect by soil treatment (Table 19, symbol F); assay type: in vivo, southern crabgrass (Digitaria ciliaris); details: amount of applied herbicide 320 g/ha
# Procedure, shortened: (§2)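 In this soil treatment, the formulated compound reached the seeds only through the soil: seeds were buried about 1.5 cm deep in sterilized diluvial soil, then the diluted emulsion was sprayed over the surface. After three weeks at 25° C. to 30° C. in a greenhouse, effects were graded on criteria from an earlier test.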
# green foxtail [3] = assay: Test Example 4: herbicidal effect by soil treatment (Table 19, symbol G); assay type: in vivo, green foxtail (Setaria viridis); details: amount of applied herbicide 320 g/ha
# Procedure, shortened: as §2
# barnyard grass [4] = assay: Test Example 4: herbicidal effect by soil treatment (Table 19, symbol H); assay type: in vivo, barnyard grass (Echinochloa crus-galli); details: amount of applied herbicide 320 g/ha
# Procedure, shortened: as §2
# wild oat [5] = assay: Test Example 4: herbicidal effect by soil treatment (Table 19, symbol I); assay type: in vivo, wild oat (Avena fatua); details: amount of applied herbicide 320 g/ha
# Procedure, shortened: as §2
# blackgrass [6] = assay: Test Example 4: herbicidal effect by soil treatment (Table 19, symbol J); assay type: in vivo, blackgrass (Alopecurus myosuroides); details: amount of applied herbicide 320 g/ha
# Procedure, shortened: as §2
# Italian ryegrass [7] = assay: Test Example 4: herbicidal effect by soil treatment (Table 19, symbol K); assay type: in vivo, Italian ryegrass (Lolium multiflorum); details: amount of applied herbicide 320 g/ha
# Procedure, shortened: as §2
# windgrass [8] = assay: Test Example 4: herbicidal effect by soil treatment (Table 19, symbol L); assay type: in vivo, windgrass (Apera spica-venti); details: amount of applied herbicide 320 g/ha
# Procedure, shortened: as §2
# velvetleaf [9] = assay: Test Example 4: herbicidal effect by soil treatment (Table 19, symbol M); assay type: in vivo, velvetleaf (Abutilon theophrasti); details: amount of applied herbicide 320 g/ha
# Procedure, shortened: as §2
# redroot pigweed [10] = assay: Test Example 4: herbicidal effect by soil treatment (Table 19, symbol N); assay type: in vivo, redroot pigweed (Amaranthus retroflexus); details: amount of applied herbicide 320 g/ha
# Procedure, shortened: as §2
# lambsquarters [11] = assay: Test Example 4: herbicidal effect by soil treatment (Table 19, symbol O); assay type: in vivo, lambsquarters (Chenopodium album); details: amount of applied herbicide 320 g/ha
# Procedure, shortened: as §2
# chickweed [12] = assay: Test Example 4: herbicidal effect by soil treatment (Table 19, symbol P); assay type: in vivo, common chickweed (Stellaria media); details: amount of applied herbicide 320 g/ha
# Procedure, shortened: as §2
# false cleavers [13] = assay: Test Example 4: herbicidal effect by soil treatment (Table 19, symbol Q); assay type: in vivo, false cleavers (Galium spurium); details: amount of applied herbicide 320 g/ha
# Procedure, shortened: as §2
# persian speedwell [14] = assay: Test Example 4: herbicidal effect by soil treatment (Table 19, symbol R); assay type: in vivo, Persian speedwell (Veronica persica); details: amount of applied herbicide 320 g/ha
# Procedure, shortened: as §2
# southern crabgrass [15] = assay: Test Example 5: herbicidal effect by foliage application, plastic box (Table 20, symbol F); assay type: in vivo, southern crabgrass (Digitaria ciliaris); details: foliage application, 320 g/ha, three weeks after application
# Procedure, shortened: (§3)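 Plants were sown into sterilized diluvial soil under about 1.5 cm cover and kept in a greenhouse at 25° C. to 30° C. Fourteen days on, foliage received an even spray of the diluted emulsion. Herbicidal or crop effect was judged three weeks afterwards.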
# green foxtail [16] = assay: Test Example 5: herbicidal effect by foliage application, plastic box (Table 20, symbol G); assay type: in vivo, green foxtail (Setaria viridis); details: foliage application, 320 g/ha, three weeks after application
# Procedure, shortened: as §3
# barnyard grass [17] = assay: Test Example 5: herbicidal effect by foliage application, plastic box (Table 20, symbol H); assay type: in vivo, barnyard grass (Echinochloa crus-galli); details: foliage application, 320 g/ha, three weeks after application
# Procedure, shortened: as §3
# wild oat [18] = assay: Test Example 5: herbicidal effect by foliage application, plastic box (Table 20, symbol I); assay type: in vivo, wild oat (Avena fatua); details: foliage application, 320 g/ha, three weeks after application
# Procedure, shortened: as §3
# blackgrass [19] = assay: Test Example 5: herbicidal effect by foliage application, plastic box (Table 20, symbol J); assay type: in vivo, blackgrass (Alopecurus myosuroides); details: foliage application, 320 g/ha, three weeks after application
# Procedure, shortened: as §3
# Italian ryegrass [20] = assay: Test Example 5: herbicidal effect by foliage application, plastic box (Table 20, symbol K); assay type: in vivo, Italian ryegrass (Lolium multiflorum); details: foliage application, 320 g/ha, three weeks after application
# Procedure, shortened: as §3
# windgrass [21] = assay: Test Example 5: herbicidal effect by foliage application, plastic box (Table 20, symbol L); assay type: in vivo, windgrass (Apera spica-venti); details: foliage application, 320 g/ha, three weeks after application
# Procedure, shortened: as §3
# velvetleaf [22] = assay: Test Example 5: herbicidal effect by foliage application, plastic box (Table 20, symbol M); assay type: in vivo, velvetleaf (Abutilon theophrasti); details: foliage application, 320 g/ha, three weeks after application
# Procedure, shortened: as §3
# redroot pigweed [23] = assay: Test Example 5: herbicidal effect by foliage application, plastic box (Table 20, symbol N); assay type: in vivo, redroot pigweed (Amaranthus retroflexus); details: foliage application, 320 g/ha, three weeks after application
# Procedure, shortened: as §3
# lambsquarters [24] = assay: Test Example 5: herbicidal effect by foliage application, plastic box (Table 20, symbol O); assay type: in vivo, lambsquarters (Chenopodium album); details: foliage application, 320 g/ha, three weeks after application
# Procedure, shortened: as §3
# chickweed [25] = assay: Test Example 5: herbicidal effect by foliage application, plastic box (Table 20, symbol P); assay type: in vivo, common chickweed (Stellaria media); details: foliage application, 320 g/ha, three weeks after application
# Procedure, shortened: as §3
# false cleavers [26] = assay: Test Example 5: herbicidal effect by foliage application, plastic box (Table 20, symbol Q); assay type: in vivo, false cleavers (Galium spurium); details: foliage application, 320 g/ha, three weeks after application
# Procedure, shortened: as §3
# persian speedwell [27] = assay: Test Example 5: herbicidal effect by foliage application, plastic box (Table 20, symbol R); assay type: in vivo, Persian speedwell (Veronica persica); details: foliage application, 320 g/ha, three weeks after application
# Procedure, shortened: as §3
smiles,measurement,setting,value
COc1c(F)cccc1-c1sc2ccccc2c1-c1c(O)c(C)nn(C)c1=O [1-054],"herbicidal effect on H (barnyard grass), rating 0-5",barnyard grass [1],5 (Herbicidal rate of 90% or more (almost completely withered))
same,"herbicidal effect on D (Chinese sprangletop), rating 0-5",Chinese sprangletop,3 (Herbicidal rate of 40% or more and less than 70%)
same,"herbicidal effect on E (rice flat sedge), rating 0-5",rice flat sedge,4 (Herbicidal rate of 70% or more and less than 90%)
same,"herbicidal effect rating, F: southern crabgrass",southern crabgrass [2],0 (Herbicidal rate of 5% or less (almost no effect))
same,"herbicidal effect rating, G: green foxtail",green foxtail [3],0 (Herbicidal rate of 5% or less (almost no effect))
same,"herbicidal effect rating, H: barnyard grass",barnyard grass [4],2 (Herbicidal rate of 20% or more and less than 40%)
same,"herbicidal effect rating, I: wild oat",wild oat [5],0 (Herbicidal rate of 5% or less (almost no effect))
same,"herbicidal effect rating, J: blackgrass",blackgrass [6],3 (Herbicidal rate of 40% or more and less than 70%)
same,"herbicidal effect rating, K: Italian ryegrass",Italian ryegrass [7],3 (Herbicidal rate of 40% or more and less than 70%)
same,"herbicidal effect rating, L: windgrass",windgrass [8],0 (Herbicidal rate of 5% or less (almost no effect))
same,"herbicidal effect rating, M: velvetleaf",velvetleaf [9],0 (Herbicidal rate of 5% or less (almost no effect))
same,"herbicidal effect rating, N: redroot pigweed",redroot pigweed [10],0 (Herbicidal rate of 5% or less (almost no effect))
same,"herbicidal effect rating, O: lambsquarters",lambsquarters [11],0 (Herbicidal rate of 5% or less (almost no effect))
same,"herbicidal effect rating, P: chickweed",chickweed [12],0 (Herbicidal rate of 5% or less (almost no effect))
same,"herbicidal effect rating, Q: false cleavers",false cleavers [13],0 (Herbicidal rate of 5% or less (almost no effect))
same,"herbicidal effect rating, R: persian speedwell",persian speedwell [14],0 (Herbicidal rate of 5% or less (almost no effect))
same,"herbicidal effect grade, F: southern crabgrass",southern crabgrass [15],2 (Herbicidal rate of 20% or more and less than 40%)
same,"herbicidal effect grade, G: green foxtail",green foxtail [16],4 (Herbicidal rate of 70% or more and less than 90%)
same,"herbicidal effect grade, H: barnyard grass",barnyard grass [17],3 (Herbicidal rate of 40% or more and less than 70%)
same,"herbicidal effect grade, I: wild oat",wild oat [18],3 (Herbicidal rate of 40% or more and less than 70%)
same,"herbicidal effect grade, J: blackgrass",blackgrass [19],0 (Herbicidal rate of 5% or less (almost no effect))
same,"herbicidal effect grade, K: Italian ryegrass",Italian ryegrass [20],4 (Herbicidal rate of 70% or more and less than 90%)
same,"herbicidal effect grade, L: windgrass",windgrass [21],0 (Herbicidal rate of 5% or less (almost no effect))
same,"herbicidal effect grade, M: velvetleaf",velvetleaf [22],5 (Herbicidal rate of 90% or more (almost completely withered))
same,"herbicidal effect grade, N: redroot pigweed",redroot pigweed [23],5 (Herbicidal rate of 90% or more (almost completely withered))
same,"herbicidal effect grade, O: lambsquarters",lambsquarters [24],5 (Herbicidal rate of 90% or more (almost completely withered))
same,"herbicidal effect grade, P: chickweed",chickweed [25],5 (Herbicidal rate of 90% or more (almost completely withered))
same,"herbicidal effect grade, Q: false cleavers",false cleavers [26],4 (Herbicidal rate of 70% or more and less than 90%)
same,"herbicidal effect grade, R: persian speedwell",persian speedwell [27],1 (Herbicidal rate of 5% or more and less than 20%)
COc1c(C)cc(-c2sc3ccccc3c2-c2c(O)c(C)nn(C)c2=O)cc1C [1-074],"herbicidal effect on H (barnyard grass), rating 0-5",barnyard grass [1],3 (Herbicidal rate of 40% or more and less than 70%)
same,"herbicidal effect on D (Chinese sprangletop), rating 0-5",Chinese sprangletop,0 (Herbicidal rate of 5% or less (almost no effect))
same,"herbicidal effect on E (rice flat sedge), rating 0-5",rice flat sedge,5 (Herbicidal rate of 90% or more (almost completely withered))
same,"herbicidal effect rating, F: southern crabgrass",southern crabgrass [2],0 (Herbicidal rate of 5% or less (almost no effect))
same,"herbicidal effect rating, G: green foxtail",green foxtail [3],0 (Herbicidal rate of 5% or less (almost no effect))
same,"herbicidal effect rating, H: barnyard grass",barnyard grass [4],0 (Herbicidal rate of 5% or less (almost no effect))
same,"herbicidal effect rating, I: wild oat",wild oat [5],0 (Herbicidal rate of 5% or less (almost no effect))
same,"herbicidal effect rating, J: blackgrass",blackgrass [6],0 (Herbicidal rate of 5% or less (almost no effect))
same,"herbicidal effect rating, K: Italian ryegrass",Italian ryegrass [7],0 (Herbicidal rate of 5% or less (almost no effect))
same,"herbicidal effect rating, L: windgrass",windgrass [8],0 (Herbicidal rate of 5% or less (almost no effect))
same,"herbicidal effect rating, M: velvetleaf",velvetleaf [9],0 (Herbicidal rate of 5% or less (almost no effect))
same,"herbicidal effect rating, N: redroot pigweed",redroot pigweed [10],0 (Herbicidal rate of 5% or less (almost no effect))
same,"herbicidal effect rating, O: lambsquarters",lambsquarters [11],0 (Herbicidal rate of 5% or less (almost no effect))
same,"herbicidal effect rating, P: chickweed",chickweed [12],0 (Herbicidal rate of 5% or less (almost no effect))
same,"herbicidal effect rating, Q: false cleavers",false cleavers [13],0 (Herbicidal rate of 5% or less (almost no effect))
same,"herbicidal effect rating, R: persian speedwell",persian speedwell [14],3 (Herbicidal rate of 40% or more and less than 70%)
same,"herbicidal effect grade, F: southern crabgrass",southern crabgrass [15],0 (Herbicidal rate of 5% or less (almost no effect))
same,"herbicidal effect grade, G: green foxtail",green foxtail [16],0 (Herbicidal rate of 5% or less (almost no effect))
same,"herbicidal effect grade, H: barnyard grass",barnyard grass [17],0 (Herbicidal rate of 5% or less (almost no effect))
same,"herbicidal effect grade, I: wild oat",wild oat [18],0 (Herbicidal rate of 5% or less (almost no effect))
same,"herbicidal effect grade, J: blackgrass",blackgrass [19],0 (Herbicidal rate of 5% or less (almost no effect))
same,"herbicidal effect grade, K: Italian ryegrass",Italian ryegrass [20],4 (Herbicidal rate of 70% or more and less than 90%)
same,"herbicidal effect grade, L: windgrass",windgrass [21],0 (Herbicidal rate of 5% or less (almost no effect))
same,"herbicidal effect grade, M: velvetleaf",velvetleaf [22],0 (Herbicidal rate of 5% or less (almost no effect))
same,"herbicidal effect grade, N: redroot pigweed",redroot pigweed [23],0 (Herbicidal rate of 5% or less (almost no effect))
same,"herbicidal effect grade, O: lambsquarters",lambsquarters [24],0 (Herbicidal rate of 5% or less (almost no effect))
same,"herbicidal effect grade, P: chickweed",chickweed [25],5 (Herbicidal rate of 90% or more (almost completely withered))
same,"herbicidal effect grade, Q: false cleavers",false cleavers [26],0 (Herbicidal rate of 5% or less (almost no effect))
same,"herbicidal effect grade, R: persian speedwell",persian speedwell [27],5 (Herbicidal rate of 90% or more (almost completely withered))
